{"source": "ChEMBL document CHEMBL2074461", "about": "“Functional characteristics and tissue distribution pattern of organic cation transporter 2 (OCTN2), an organic cation/carnitine transporter” (J Pharmacol Exp Ther, 1999)", "molecules": {"B1": {"name": "Organic cation/carnitine transporter 2 (Rattus norvegicus) (protein)", "chain": "MRDYDEVTAFLGEWGPFQRLIFFLLSASIIPNGFNGMSIVFLAGTPEHRCLVPHTVNLSSAWRNHSIPLETKDGRQVPQSCRRYRLATIANFSALGLEPGRDVDLEQLEQENCLDGWEYNKDVFLSTIVTEWDLVCKDDWKAPLTTSLFFVGVLMGSFISGQLSDRFGRKNVLFLTMGMQTGFSFLQLFSVNFEMFTVLFVLVGMGQISNYVAAFVLGTEILSKSIRIIFATLGVCIFYAFGFMVLPLFAYFIRDWRMLLLALTVPGVLCGALWWFIPESPRWLISQGRVKEAEVIIRKAAKFNGIVAPSTIFDPSELQDLNSKKPQSHHIYDLVRTRNIRIITIMSIILWLTISVGYFGLSLDTPNLHGDIYVNCFLLAAVEVPAYVLAWLLLQHLPRRYSISAALFLGGSVLLFIQLVPSELFYLSTALVMVGKFGITSAYSMVYVYTAELYPTVVRNMGVGVSSTASRLGSILSPYFVYLGAYDRFLPYILMGSLTILTAILTLFFPESFGAPLPDTIDQMLRVKGIKQWQIQSQTRTQKDGGESPTVLKSTAF"}}, "key": {"[1]": {"biological_target": "T1, Organic cation/carnitine transporter 2 (Rattus norvegicus, UniProt O70594)", "T1 sequence (O70594 whole entry)": "B1 chain", "experiment": "TP_TRANSPORTER: inhibition of TEA uptake (TEA: 20 uM, MPTP: 2500 uM) in OCTN2-expressing HRPE cells", "format": "functional, cell-based", "settings": "human"}, "[2]": {"biological_target": "T2, OCTN2 (organic cation/carnitine transporter 2) (Homo sapiens, UniProt O76082)", "T2 sequence (O76082 whole entry)": "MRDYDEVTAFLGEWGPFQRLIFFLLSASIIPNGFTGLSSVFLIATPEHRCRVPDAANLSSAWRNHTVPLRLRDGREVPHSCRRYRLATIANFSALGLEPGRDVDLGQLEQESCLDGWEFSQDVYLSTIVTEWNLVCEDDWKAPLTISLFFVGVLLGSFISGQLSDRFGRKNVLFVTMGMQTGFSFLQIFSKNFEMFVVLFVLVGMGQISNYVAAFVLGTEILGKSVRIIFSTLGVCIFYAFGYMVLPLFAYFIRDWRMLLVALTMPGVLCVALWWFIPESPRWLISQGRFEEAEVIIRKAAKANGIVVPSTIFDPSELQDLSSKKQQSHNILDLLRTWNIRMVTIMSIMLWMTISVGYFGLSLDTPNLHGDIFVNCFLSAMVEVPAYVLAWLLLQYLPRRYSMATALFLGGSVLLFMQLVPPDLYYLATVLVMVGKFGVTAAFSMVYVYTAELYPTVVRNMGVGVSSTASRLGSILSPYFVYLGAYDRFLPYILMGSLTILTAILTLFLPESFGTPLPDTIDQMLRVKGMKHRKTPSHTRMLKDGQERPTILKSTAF", "experiment": "(§1) TP_TRANSPORTER: inhibition of Carnitine uptake (Carnitine: 0.025 uM, MPTP: 2000 uM) in OCTN2-expressing HRPE cells", "format": "functional, cell-based", "parameters": "scale not given: the % may be the effect or the level left", "settings": "HRPE cells expressing OCTN2, probe carnitine (0.025 uM), read-out: Activity"}, "[3]": {"biological_target": "T3, OCTN2 (organic cation/carnitine transporter 2) (Rattus norvegicus, UniProt O70594)", "T3 sequence (O70594 whole entry)": "B1 chain", "experiment": "as §1", "format": "functional, cell-based", "parameters": "scale not given: the % may be the effect or the level left", "settings": "human, HRPE cells expressing OCTN2, probe carnitine (0.025 uM); read-out: Activity"}, "[4]": {"biological_target": "T1, Organic cation/carnitine transporter 2", "experiment": "TP_TRANSPORTER: inhibition of TEA uptake (TEA: 20 uM, MPP+: 2500 uM) in OCTN2-expressing HRPE cells", "format": "functional, cell-based", "settings": "human"}, "[5]": {"biological_target": "T1, Organic cation/carnitine transporter 2", "experiment": "(§2) TP_TRANSPORTER: uptake in OCTN2-expressing HRPE cells", "format": "functional, cell-based", "settings": "human"}, "[6]": {"biological_target": "T3, OCTN2 (organic cation/carnitine transporter 2)", "experiment": "TP_TRANSPORTER: inhibition of Carnitine uptake (Carnitine: 0.025 uM, Acetyl-L-carnitine: 500 uM) in OCTN2-expressing HRPE cells", "format": "functional, cell-based", "parameters": "scale not given: the % may be the effect or the level left", "settings": "human, HRPE cells expressing OCTN2, probe carnitine (0.025 uM); read-out: Activity"}, "[7]": {"biological_target": "T1, Organic cation/carnitine transporter 2", "experiment": "TP_TRANSPORTER: inhibition of TEA uptake (TEA: 20 uM, Amphetamine: 2500 uM) in OCTN2-expressing HRPE cells", "format": "functional, cell-based", "settings": "human"}, "[8]": {"biological_target": "T3, OCTN2 (organic cation/carnitine transporter 2)", "experiment": "TP_TRANSPORTER: inhibition of Carnitine uptake (Carnitine: 0.025 uM, Betaine: 500 uM) in OCTN2-expressing HRPE cells", "format": "functional, cell-based", "parameters": "scale not given: the % may be the effect or the level left", "settings": "human, HRPE cells expressing OCTN2, probe carnitine (0.025 uM); read-out: Activity"}, "[9]": {"biological_target": "T2, OCTN2 (organic cation/carnitine transporter 2)", "experiment": "in vitro", "settings": "HRPE cells expressing OCTN2, probe carnitine (0.025 uM)", "description": "(§3) TP_TRANSPORTER: inhibition of Carnitine uptake (Carnitine: 0.025 uM, Choline: 2000 uM) in OCTN2-expressing HRPE cells"}, "[10]": {"biological_target": "T3, OCTN2 (organic cation/carnitine transporter 2)", "experiment": "in vitro", "settings": "human, HRPE cells expressing OCTN2, probe carnitine (0.025 uM)", "description": "as §3"}, "[11]": {"biological_target": "T3, OCTN2 (organic cation/carnitine transporter 2)", "experiment": "in vitro", "settings": "human, HRPE cells expressing OCTN2, probe carnitine (0.025 uM)", "remark": "listed apart in the source", "description": "TP_TRANSPORTER: inhibition of Carnitine uptake (Carnitine: 0.025 uM, Cimetidine: 2000 uM) in OCTN2-expressing HRPE cells"}, "[12]": {"biological_target": "T2, OCTN2 (organic cation/carnitine transporter 2)", "experiment": "TP_TRANSPORTER: inhibition of Carnitine uptake (Carnitine: 0.025 uM, Desipramine: 500 uM) in OCTN2-expressing HRPE cells", "format": "functional, cell-based", "parameters": "scale not given: the % may be the effect or the level left", "settings": "HRPE cells expressing OCTN2, probe carnitine (0.025 uM), read-out: Activity"}, "[13]": {"biological_target": "T1, Organic cation/carnitine transporter 2", "experiment": "TP_TRANSPORTER: inhibition of TEA uptake (TEA: 20 uM, Desipramine: 2500 uM) in OCTN2-expressing HRPE cells", "format": "functional, cell-based", "settings": "human"}, "[14]": {"biological_target": "T1, Organic cation/carnitine transporter 2", "experiment": "TP_TRANSPORTER: inhibition of TEA uptake (TEA: 20 uM, Guanidine: 2500 uM) in OCTN2-expressing HRPE cells", "format": "functional, cell-based", "settings": "human"}, "[15]": {"biological_target": "T1, Organic cation/carnitine transporter 2", "experiment": "TP_TRANSPORTER: inhibition of TEA uptake (TEA: 20 uM, Methanphetamine: 2500 uM) in OCTN2-expressing HRPE cells", "format": "functional, cell-based", "settings": "human"}, "[16]": {"biological_target": "T1, Organic cation/carnitine transporter 2", "experiment": "TP_TRANSPORTER: inhibition of TEA uptake (TEA: 20 uM, Norepinephrine: 2500 uM) in OCTN2-expressing HRPE cells", "format": "functional, cell-based", "settings": "human"}, "[17]": {"biological_target": "T1, Organic cation/carnitine transporter 2", "experiment": "TP_TRANSPORTER: inhibition of TEA uptake (TEA: 20 uM, Procainamide: 2500 uM) in OCTN2-expressing HRPE cells", "format": "functional, cell-based", "settings": "human"}, "[18]": {"biological_target": "T4, Organic cation/carnitine transporter 2 (Homo sapiens, UniProt O76082)", "T4 sequence (O76082 whole entry)": "T2 sequence (O76082 whole entry)", "experiment": "as §2", "format": "functional, cell-based"}, "[19]": {"biological_target": "T1, Organic cation/carnitine transporter 2", "experiment": "TP_TRANSPORTER: inhibition of TEA uptake (TEA: 20 uM, Serotonin: 2500 uM) in OCTN2-expressing HRPE cells", "format": "functional, cell-based", "settings": "human"}, "[20]": {"biological_target": "T1, Organic cation/carnitine transporter 2", "experiment": "TP_TRANSPORTER: inhibition of TEA uptake (TEA: 20 uM, THA: 2500 uM) in OCTN2-expressing HRPE cells", "format": "functional, cell-based", "settings": "human"}, "[21]": {"biological_target": "T1, Organic cation/carnitine transporter 2", "experiment": "TP_TRANSPORTER: inhibition of TEA uptake (TEA: 20 uM, TMA: 2500 uM) in OCTN2-expressing HRPE cells", "format": "functional, cell-based", "settings": "human"}, "[22]": {"biological_target": "T2, OCTN2 (organic cation/carnitine transporter 2)", "experiment": "in vitro", "settings": "HRPE cells expressing OCTN2, probe carnitine (0.025 uM)", "remark": "listed apart in the source", "description": "(§4) TP_TRANSPORTER: inhibition of Carnitine uptake (Carnitine: 0.025 uM, TEA: 2000 uM) in OCTN2-expressing HRPE cells"}, "[23]": {"biological_target": "T3, OCTN2 (organic cation/carnitine transporter 2)", "experiment": "in vitro", "settings": "human, HRPE cells expressing OCTN2, probe carnitine (0.025 uM)", "remark": "listed apart in the source", "description": "as §4"}, "[24]": {"substrate": "C[N+](C)(C)CC(O)CC(=O)[O-]", "experiment": "as §2", "format": "functional, cell-based"}, "[25]": {"substrate": "CC[N+](CC)(CC)CC", "experiment": "cells, lysate or membranes named"}}, "data": [{"molecule": "CN1CC=C(c2ccccc2)CC1", "values": [{"measurement": "Inhibition", "setting": "[1]", "value": "inhibitor [50-75 % inhibition]"}, {"measurement": "activity at 2000 µM", "setting": "[2]", "value": 47, "unit": "%"}, {"measurement": "activity at 2000 µM", "setting": "[3]", "value": 4, "unit": "%"}]}, {"molecule": "C[n+]1ccc(-c2ccccc2)cc1", "values": [{"measurement": "Inhibition", "setting": "[4]", "value": "inhibitor [50-75 % inhibition]"}]}, {"molecule": "CC(=O)O[C@H](CC(=O)[O-])C[N+](C)(C)C", "note": "[ACETYLCARNITINE]", "values": [{"measurement": "Activity", "setting": "[5]", "value": "substrate [+]"}, {"measurement": "activity at 500 µM", "setting": "[6]", "value": 1, "unit": "%"}]}, {"molecule": "CC(N)Cc1ccccc1", "note": "(stereo unspecified) [AMPHETAMINE]", "values": [{"measurement": "Inhibition", "setting": "[7]", "value": "inhibitor [20-30 % inhibition]"}]}, {"molecule": "C[N+](C)(C)CC(=O)O", "note": "[BETAINE]", "values": [{"measurement": "activity at 500 µM", "setting": "[8]", "value": 51, "unit": "%"}]}, {"molecule": "C[N+](C)(C)CCO", "note": "[CHOLINE]", "values": [{"measurement": "activity at 2000 µM", "setting": "[9]", "value": 82, "unit": "%"}, {"measurement": "activity at 2000 µM", "setting": "[10]", "value": 24, "unit": "%"}]}, {"molecule": "CN/C(=N/CCSCc1nc[nH]c1C)NC#N", "note": "[CIMETIDINE]", "values": [{"measurement": "activity at 2000 µM", "setting": "[11]", "value": 29, "unit": "%"}]}, {"molecule": "CNCCCN1c2ccccc2CCc2ccccc21", "note": "[DESIPRAMINE]", "values": [{"measurement": "activity at 500 µM", "setting": "[12]", "value": 0, "unit": "%"}, {"measurement": "Inhibition", "setting": "[13]", "value": "inhibitor [90-95 % inhibition]"}]}, {"molecule": "N=C(N)N", "note": "[GUANIDINE]", "values": [{"measurement": "Activity", "setting": "[14]", "value": "is not an inhibitor [-]"}]}, {"molecule": "CN[C@@H](C)Cc1ccccc1", "note": "[METHAMPHETAMINE]", "values": [{"measurement": "Inhibition", "setting": "[15]", "value": "inhibitor [20-30 % inhibition]"}]}, {"molecule": "NC[C@H](O)c1ccc(O)c(O)c1", "note": "[NOREPINEPHRINE]", "values": [{"measurement": "Activity", "setting": "[16]", "value": "is not an inhibitor [-]"}]}, {"molecule": "CCN(CC)CCNC(=O)c1ccc(N)cc1", "note": "[PROCAINAMIDE]", "values": [{"measurement": "Inhibition", "setting": "[17]", "value": "inhibitor [50-75 % inhibition]"}]}, {"molecule": "CCC(=O)OC(CC(=O)[O-])C[N+](C)(C)C", "note": "(stereo unspecified) [Propionyl-Carnitine]", "values": [{"measurement": "Activity", "setting": "[18]", "value": "substrate [+]"}, {"measurement": "Activity", "setting": "[5]", "value": "substrate [+]"}]}, {"molecule": "NCCc1c[nH]c2ccc(O)cc12", "note": "[SEROTONIN]", "values": [{"measurement": "Activity", "setting": "[19]", "value": "is not an inhibitor [-]"}]}, {"molecule": "CCCCCC[N+](CCCCCC)(CCCCCC)CCCCCC", "note": "[TETRAHEXYLAMMONIUM]", "values": [{"measurement": "Inhibition", "setting": "[20]", "value": "inhibitor [90-95 % inhibition]"}]}, {"molecule": "C[N+](C)(C)C.[Cl-]", "note": "[TETRAMETHYLAMMONIUM]", "values": [{"measurement": "Inhibition", "setting": "[21]", "value": "inhibitor [20-30 % inhibition]"}]}, {"molecule": "CC[N+](CC)(CC)CC", "note": "[TETRYLAMMONIUM]", "values": [{"measurement": "activity at 2000 µM", "setting": "[22]", "value": 40, "unit": "%"}, {"measurement": "activity at 2000 µM", "setting": "[23]", "value": 4, "unit": "%"}]}, {"molecule": "B1", "values": [{"measurement": "Km", "setting": "[24]", "value": 14.8, "unit": "µM"}, {"measurement": "Km", "setting": "[25]", "value": 63, "unit": "µM"}]}]}
